How the values were obtained:
[1] = system: sciatic nerve neurectomized ddY mice; assay: Prophylactic effects in neurectomized ddY mouse model (immobilization osteoporosis); format: in vivo; conditions: for TBV (%): epiphyseal regions of right tibia; for Cbt (um): mid-shaft regions of right tibia; for histological profiles of epiphyseal regions: FIG. 10, Hematoxylin-Eosin; for TBV % compared to control group (in words) / cortical bone thickness compared to control group (in words): right tibia, Fosamax 1 mg/kg, DW1350MSA 10 and 50 mg/kg
Source text: The effects of a drug would be based on histomorphometric changes of trabecular bone and thickness of cortical bone in this model.
The objective of the present study is to observe the anti-osteoporotic potential of DW1350MSA, and administration of the drug was initiated 2 days after neurectomy for prophylaxis study.
Twenty-five female ddY mice (6-wk old upon receipt, SLC, Japan) were used after acclimatization for 7 days. Animals were allocated to 5 per polycarbonate cage in a temperature (20-25° C.) and humidity (30-35%) controlled room. Light:dark cycle was 12 hr:12 hr and feed (Samyang, Korea) and water were supplied free to access. 20 mice were neurectomized and 5 mice were sham operated. For the prophylaxis study, treatment was initiated 2 days after neurectomy and then each sample was administrated for 4 weeks.
DW1350MSA was dissolved in injectable distilled water and administered at a dosage volume of 10 ml/kg by oral gavage. The administered dose and schedule of these drugs are shown as Table 12.
3) Operation • A. Sham operation: The right side of the sciatic nerve was exposed by incision of skin and hip muscles, (about 1 cm) after that closed by skin suture. • B. neurectomy: After exposure of the right side of the sciatic nerve, about 1 mm of sciatic nerve was removed. After that closed by routine methods. • C. Operation was conducted under Ketamine hydrochloride (M.W.=256.8; 23076-35-9, ICN Biochemicals Inc., USA) and Xylazine hydrochloride (M.W.=274.19; 116-00512, Wako Pure Chemical Industries Ltd., Japan) anesthesia.
After that, embedded in paraffin, sectioned (3˜4 um) and stained with hematoxylin-eosin strain.
Mid-shaft cortical bone of tibia, and trabecular bone volume % of tibia were evaluated. In addition, histological profiles of epiphyseal regions of right tibia and femur were also observed. • A. Measurement of trabecular bone volume (TBV) Trabecular bone volume was calculated using automated image analysis (analySIS Image Processing; SIS, Germany) under magnification […] (×200) of microscopy (Zeiss, Germany) in the uniform area of epiphyseal regions of the right tibia and/or femur (growth plate regions were excluded). Trabecular bone volume was calculated as percentage levels. • B. Thickness of cortical bone (Cbt): Cortical bone thickness was detected in mid-shaft regions of right tibia and/or femur, and they were calculated using an automated image analyzer (analysis Image Processing; SIS, Germany) under magnification 200 (×200) of microscopy (Zeiss, Germany) at prepared histological samples. The thickness was detected as um levels. • C.
(§1) All data was calculated as mean±S.D. Statistical analyses was conducted using Mann-Whitney U-Wilcoxon Rank Sum W test (M-W test) with SPSS for Windows (Release 6.1.3., SPSS Inc., USA).

ovariectomized ddY mice = assay: Prophylactic effects in ovariectomized ddY mouse model (estrogen-deficient osteoporosis); format: in vivo; conditions: for histological profiles of epiphyseal regions of right tibia and femur: FIG. 11
Description: The effects of a drug would be based on histomorphometric changes of trabecular bone and thickness cortical bone in this model.
The objective of present study is to observe the prophylactic effect of DW1350MSA, and administration of drug was initiated 3 days after ovariectomy for prophylaxis study.
Twenty-five female ddY mice (6-wk old upon receipt, SLC, Japan) were used after acclimatization for 7 days. Animals were allocated 5 per polycarbonate cage in a temperature (20-25° C.) and humidity (30-35%) controlled room. Light:dark cycle was 12 hr:12 hr and feed (Samyang, Korea) and water were supplied free to access. 20 mice were ovariectomized and 5 mice were sham operated. For prophylaxis study, treatment was initiated 3 days after ovariectomy and then each sample was administrated for 6 weeks.
DW1350MSA was dissolved in injectable distilled water and administered at a dosage volume of 10 ml/kg by oral gavage.
3) Operation • A. Sham operation: Bilateral ovaries were exposed by incision of skin and abdominal muscles, (about 3 cm) after that closed by skin suture. • B. Ovariectomy: After exposure of bilateral ovaries, they were removed. After that closed by routine methods. • C. Operation was conduct under Ketamine hydrochloride (M.W.=256.8; 23076-35-9, ICN Biochemicals Inc., USA) and Xylazine hydrochloride (M.W.=274.19; 116-00512, Wako Pure Chemical Industries Ltd., Japan) anesthesia.
After that, embedded in paraffin, sectioned (3˜4 um) and stained with hematoxylin-eosin stain.
Histomorphometric changes of tibia and femur were evaluated. All histomorphometric indices including trabecular bone volume (TBV, %), thickness of trabecular bone (Tbt), trabecular bone number (Tbn), and length of trabeculer bone (Tbl) were calculated using automated image analysis (analysis Image Processing; SIS, Germany) under magnification 200 (×200) of microscopy (Zeiss, Germany) in the epiphyseal regions of right tibia and/or femur. In addition, cortical bone thickness (Cbt) was measured in mid-shaft region of right tibia and femur. […] Trabecular bone volume was calculated as percentage levels. • B. Measurement of histomorphometric index of trabecular bone: Thickness of trabecular bone (Tbt), trabecular bone number (Tbn), and length of trabecular bone (Tbl) were calculated using automated image analysis in the epiphyseal regions of right tibia and/or femur. Tbt and Tbl were calculated as um levels, and Tbn were calculated as number/whole sectional part of epiphyseal regions levels. • C. Thickness of cortical bone (Cbt): Cortical bone thickness was detected in mid-shaft regions of right tibia and/or femur, and they were calculated using automated image analyzer at prepared histological samples.
as §1

[2] = 10 mg/kg oral once a day for 4 weeks
[3] = 50 mg/kg oral once a day for 4 weeks
[4] = right femur, 10 mg/kg oral once a day for 6 weeks (F10, D10)
[5] = right femur, 50 mg/kg oral once a day for 6 weeks (D50)
[6] = right tibia, 10 mg/kg oral once a day for 6 weeks (F10, D10)
[7] = right tibia, 50 mg/kg oral once a day for 6 weeks (D50)
[8] = tibia and femur, DW1350MSA 10 and 50 mg/kg, Fosamax 10 mg/kg
[9] = 1 mg/kg oral once a day for 4 weeks

CS(=O)(=O)O.Cc1nc(-c2ccc(OCCCCCOc3ccc(C(N)=NO)cc3)cc2)c(C(C)C)s1 [DW1350MSA]
TBV (%) [1, 2]: 25.75 ± 2.87 # %
Cbt (um) [1, 2]: 171.36 ± 18.60 # um
TBV (%) [1, 3]: 33.29 ± 4.96 %
Cbt (um) [1, 3]: 193.87 ± 12.50 um
histological profiles of epiphyseal regions [1]: relatively well developed, especially in width and number, trabecular bone was detected
TBV % compared to control group (in words) [1]: significant dose-dependent (p<0.01) increase of trabecular bone volume %
cortical bone thickness compared to control group (in words) [1]: significant dose-dependent (p<0.01) increase of cortical bone thickness
histological profiles of epiphyseal regions of right tibia and femur (ovariectomized ddY mice): relatively well developed, especially in width and length, trabecular bone was detected
Cbt, cortical bone thickness (ovariectomized ddY mice; [4]): 118.00 ± 16.79 um
Ocn, osteoclast cell number (ovariectomized ddY mice; [4]): 5.00 ± 1.58 number
TBV, trabecular bone volume (ovariectomized ddY mice; [4]): 36.97 ± 9.59 # %
Tbl, trabecular bone length (ovariectomized ddY mice; [4]): 635.60 ± 190.76 um
Tbn, trabecular bone number (ovariectomized ddY mice; [4]): 19.00 ± 1.58 number/epiphyseal
Tbt, trabecular bone thickness (ovariectomized ddY mice; [4]): 48.60 ± 10.50 ## um
Cbt, cortical bone thickness (ovariectomized ddY mice; [5]): 140.26 ± 33.16 um
Ocn, osteoclast cell number (ovariectomized ddY mice; [5]): 4.40 ± 1.34 number
TBV, trabecular bone volume (ovariectomized ddY mice; [5]): 41.91 ± 6.04 # %
Tbl, trabecular bone length (ovariectomized ddY mice; [5]): 743.40 ± 187.00 um
Tbn, trabecular bone number (ovariectomized ddY mice; [5]): 21.80 ± 1.92 number/epiphyseal
Tbt, trabecular bone thickness (ovariectomized ddY mice; [5]): 68.00 ± 21.41 um
Cbt, cortical bone thickness (ovariectomized ddY mice; [6]): 136.80 ± 26.58 # um
Ocn, osteoclast cell number (ovariectomized ddY mice; [6]): 5.40 ± 1.52 # number
TBV, trabecular bone volume (ovariectomized ddY mice; [6]): 35.20 ± 4.90 # %
Tbl, trabecular bone length (ovariectomized ddY mice; [6]): 605.00 ± 160.44 ## um
Tbn, trabecular bone number (ovariectomized ddY mice; [6]): 11.80 ± 3.11 # number/epiphyseal
Tbt, trabecular bone thickness (ovariectomized ddY mice; [6]): 60.80 ± 13.20 # um
Cbt, cortical bone thickness (ovariectomized ddY mice; [7]): 170.40 ± 44.73 um
Ocn, osteoclast cell number (ovariectomized ddY mice; [7]): 3.60 ± 1.14 # number
TBV, trabecular bone volume (ovariectomized ddY mice; [7]): 38.42 ± 4.67 # %
Tbl, trabecular bone length (ovariectomized ddY mice; [7]): 679.20 ± 249.47 um
Tbn, trabecular bone number (ovariectomized ddY mice; [7]): 11.80 ± 3.96 # number/epiphyseal
Tbt, trabecular bone thickness (ovariectomized ddY mice; [7]): 112.60 ± 45.76 um
effect on decrease of Cbt induced by ovariectomy (summary in words) (ovariectomized ddY mice; [8]): significant effect to inhibit the decrease of Cbt induced by ovariectomy and the efficacy was higher than that of Fosamax
effect on decrease of TBV induced by ovariectomy (summary in words) (ovariectomized ddY mice; [8]): some significance effect to inhibit the decrease of TBV induced by ovariectomy but the efficacy was somewhat lower than that of Fosamax
effect on decrease of Tbl induced by ovariectomy (summary in words) (ovariectomized ddY mice; [8]): significant effect to inhibit the decrease of Tbl induced by ovariectomy and the efficacy was somewhat higher than that of Fosamax
effect on decrease of Tbn induced by ovariectomy (summary in words) (ovariectomized ddY mice; [8]): significance effect to inhibit the decrease of Tbn induced by ovariectomy and the efficacy was somewhat lower than that of Fosamax
effect on decrease of Tbt induced by ovariectomy (summary in words) (ovariectomized ddY mice; [8]): significance effect to inhibit the decrease of Tbt induced by ovariectomy and the efficacy was somewhat higher than that of Fosamax
effect on increase of Ocn induced by ovariectomy (summary in words) (ovariectomized ddY mice; [8]): significant effect to inhibit the increase of Ocn induced by ovariectomy and the efficacy was higher than that of Fosamax

NCCCC(O)(P(=O)(O)O)P(=O)(O)O [Fosamax, Alendronate]
TBV (%) [1, 9]: 21.81 ± 4.35 # %
Cbt (um) [1, 9]: 125.75 ± 36.01 um
histological profiles of epiphyseal regions [1]: more numerous extended trabecular bones were demonstrated compared to that of Control group
TBV % compared to control group (in words) [1]: significantly (p<0.01) increased compared to that of the control group
cortical bone thickness compared to control group (in words) [1]: significantly increased compared to that of the control group but significances were not demonstrated
histological profiles of epiphyseal regions of right tibia and femur (ovariectomized ddY mice): more numerous extended trabecular bones were demonstrated compared to that of Control
Cbt, cortical bone thickness (ovariectomized ddY mice; [4]): 53.00 ± 23.82 um
TBV, trabecular bone volume (ovariectomized ddY mice; [4]): 58.26 ± 5.77 %
Tbl, trabecular bone length (ovariectomized ddY mice; [4]): 460.80 ± 260.64 ## um
Tbn, trabecular bone number (ovariectomized ddY mice; [4]): 23.60 ± 2.97 # number/epiphyseal
Tbt, trabecular bone thickness (ovariectomized ddY mice; [4]): 33.00 ± 12.45 um
Cbt, cortical bone thickness (ovariectomized ddY mice; [6]): 59.80 ± 15.55 um
TBV, trabecular bone volume (ovariectomized ddY mice; [6]): 47.56 ± 7.23 # %
Tbl, trabecular bone length (ovariectomized ddY mice; [6]): 550.00 ± 74.98 ## um
Tbn, trabecular bone number (ovariectomized ddY mice; [6]): 12.60 ± 4.98 number/epiphyseal
Tbt, trabecular bone thickness (ovariectomized ddY mice; [6]): 83.20 ± 39.86 # um
effect on decrease of Cbt induced by ovariectomy (summary in words) (ovariectomized ddY mice; [8]): no favorable effect to changes of Cbt
effect on increase of Ocn induced by ovariectomy (summary in words) (ovariectomized ddY mice; [8]): no favorable effect to changes of Ocn
